Inhibition data for 12 compounds are collected here from patent US20260364184A1, “COMPOUND BASED ON OXOISOINDOLINYL-SUBSTITUTED TETRAHYDROPYRIMIDINE-DIONE AND USE THEREOF” (GLUETACS THERAPEUTICS (SHANGHAI) CO., LTD., priority 2023, published 2026).

Structures are written as SMILES. Read-outs that look alike come from different tables or passages of the source.

Broadly, the inhibition is the relative decrease from the control value, in per cent.

Test [1] relates to Human Multiple myeloma cell line (MM.1S). The test is described as follows: Inhibition of MM.1S cell proliferation (CellTiter luminescent viability). Conditions: Homo sapiens, MM1.S, 96 hours; for inhibition at 0.01 µM: 10 nM, read-out: Inhibition Rate at 10 nM (%); for inhibition at 0.5 µM: 500 nM, read-out: Inhibition Rate at 500 nM (%). In kind it is cell-based. The protocol:
(§1) The tumor cells used herein were cultured in a cell culture medium listed in table 3 at 37 °C in an incubator with 5% CO2. Prior to experimentation, all cell lines used were correctly identified by STR profiling, and tested negative for mycoplasma contamination using a mycoplasma detection kit through routine screenings.
(§2) The IC50 values of the compounds of the present disclosure (including the compounds in Table 1, Table 2, and Examples 1-468) were determined using the CellTiter-Meiluncell Luminescent Cell Viability Assay Kit from Dalian Meilun Biotech Co., Ltd. The detailed procedure is as follows: Tumor cells were seeded in 96-well cell culture plates at the densities specified in Table 4. On the following day, the test compounds of the present disclosure were subjected to serial dilution. The dilution can be performed according to one of the following two methods: • (1) The first dilution method: The test compounds of the present disclosure (including the compounds in Table 1, Table 2, and Examples 1-468) were subjected to 5-fold serial dilutions starting from a highest concentration of 2000 μM, resulting in a total of 9 concentrations from high to low (2000, 400, 80, 16, 3.2, 0.64, 0.128, 0.0256, 0.00512 μM). Subsequently, 0.5 μL of the test compound dilution was transferred into the 96-well plate containing the cells, with each well containing 100 μL of cell culture medium. […] Into the 96-well plate, the diluted test compounds and corresponding detection reagents were added, resulting in final test compound concentrations of 500 nM and 10 nM, respectively. The experimental procedure is described below using the diluted 2 μM test compound as an example.
(§3) 0.5 μL of the aforementioned diluted compound of the present disclosure (including the compounds in Table 1, Table 2, and Examples 1-468) was added to the seeded cells in 100 μL of medium, yielding a final test compound concentration of 10 nM. After the cells were treated with the compounds of the present disclosure for a specified period, the cell viability assay reagent was added to the culture medium according to the kit's instructions to determine cell viability. […] All controls were treated using the same procedure as the compounds of the present disclosure. The growth inhibition curves for the compounds of the present disclosure were plotted using Prism GraphPad software, and the IC50 values were calculated therefrom.

The subject of test [2] is Human myeloid monocytic leukemia cell line (MV-4-11). The test is described as follows: Inhibition of MV-4-11 cell proliferation (CellTiter luminescent viability). In kind it is cell-based. The settings on record: Homo sapiens, MV4-11; for inhibition at 0.01 µM: read-out: Inhibition Rate at 10 nM (%); for inhibition at 0.5 µM: read-out: Inhibition Rate at 500 nM (%). The procedure: as §1, §2, §3

Where [3] appears, read: Table IL2, BCR-ABL inhibitor-based, MV-4-11, 10 nM, 96 hours.
[4] abbreviates: Table IL2, BCR-ABL inhibitor-based, MV-4-11, 500 nM, 96 hours.
The mark [5] stands for this setting: Table IL1, BCR-ABL inhibitor-based.
[6] abbreviates: Table IB2, ALK inhibitor-based, MV-4-11, 10 nM, 96 hours.
The mark [7] stands for this setting: Table IB2, ALK inhibitor-based, MV-4-11, 500 nM, 96 hours.

With `CNC(=O)c1ccccc1Nc1cc(Nc2cc(C)c(C3CCN(Cc4ccc5c(c4)CN(N4CCC(=O)NC4=O)C5=O)CC3)cc2OC(C)C)ncc1C(F)(F)F` [GT-07663, 2-((2-((4-(1-((2-(2,4-dioxotetrahydropyrimidin-1(2H)-yl)-1-oxoisoindolin-5-yl)methyl)piperidin-4-yl)-2-isopropoxy-5-methylphenyl)amino)-5-(trifluoromethyl)pyridin-4-yl)amino)-N-methylbenzamide], in test [1] (Table IG1, FAK inhibitor-based), the inhibition at 0.01 µM fell in the range of 5 to 10% and the inhibition at 0.5 µM is 40 to 60%.

Consider `CNC(=O)c1ccccc1Nc1cc(Nc2cc(C)c(C3CCN(Cc4ccc5c(c4)C(=O)N(N4CCC(=O)NC4=O)C5=O)CC3)cc2OC(C)C)ncc1C(F)(F)F` [GT-07664, 2-((2-((4-(1-((2-(2,4-dioxotetrahydropyrimidin-1(2H)-yl)-1,3-dioxoisoindolin-5-yl)methyl)piperidin-4-yl)-2-isopropoxy-5-methylphenyl)amino)-5-(trifluoromethyl)pyridin-4-yl)amino)-N-methylbenzamide], for which, in test [1] (Table IG1, FAK inhibitor-based), the inhibition at 0.01 µM lay within 20 to 30% and the inhibition at 0.5 µM lay in the range of 40 to 60%.

As to `Cc1ccc(C(=O)Nc2ccc(N3CCC(N(C)Cc4ccc5c(c4)C(=O)N(N4CCC(=O)NC4=O)C5=O)CC3)c(C(F)(F)F)c2)cc1C#Cc1cnc2cccnn12` [GT-08221, N-(4-(4-(((2-(2,4-dioxotetrahydropyrimidin-1(2H)-yl)-1,3-dioxoisoindolin-5-yl)methyl)(methyl)amino)piperidin-1-yl)-3-(trifluoromethyl)phenyl)-3-(imidazo[1,2-b]pyridazin-3-ylethynyl)-4-methylbenzamide], the inhibition at 0.01 µM in test [2] (setting [3]) was -5 to 0%. For the same compound, in test [2] (setting [4]), the inhibition at 0.5 µM lay within 50 to 60%.

Turning to `O=C1CCN(N2C(=O)c3ccc(CN4CCN(C5CCN(c6ncc(C(=O)Nc7ccc(OC(F)(F)Cl)cc7)cc6-c6cc[nH]n6)CC5)CC4)cc3C2=O)C(=O)N1` [GT-08227, N-(4-(chlorodifluoromethoxy)phenyl)-6-(4-(4-((2-(2,4-dioxotetrahydropyrimidin-1(2H)-yl)-1,3-dioxoisoindolin-5-yl)methyl)piperazin-1-yl)piperidin-1-yl)-5-(1H-pyrazol-3-yl)nicotinamide], in test [1] (setting [5]), the inhibition at 0.01 µM lay within 20 to 30% and the inhibition at 0.5 µM is 20 to 30%.

`CN(c1cccc(CNc2nc(Nc3ccc(N4CCN(CC5CCN(c6ccc7c(c6)C(=O)N(N6CCC(=O)NC6=O)C7=O)CC5)CC4)cc3)ncc2C(F)(F)F)c1)S(C)(=O)=O` [GT-08246, N-(3-(((2-((4-(4-((1-(2-(2,4-dioxotetrahydropyrimidin-1(2H)-yl)-1,3-dioxoisoindolin-5-yl)piperidin-4-yl)methyl)piperazin-1-yl)phenyl)amino)-5-(trifluoromethyl)pyrimidin-4-yl)amino)methyl)phenyl)-N-methylmethanesulfonamide]: in test [1] (Table IG1, FAK inhibitor-based), the inhibition at 0.01 µM is 30 to 40% and the inhibition at 0.5 µM lay within 30 to 40%.

Regarding `COc1cc(N2CCC(N3CCN(CC4CCN(c5ccc6c(c5)C(=O)N(N5CCC(=O)NC5=O)C6=O)CC4)CC3)CC2)ccc1Nc1ncc(Cl)c(Nc2ccccc2P(C)(C)=O)n1` [GT-08251, 5-(4-((4-(1-(4-((5-chloro-4-((2-(dimethylphosphoryl)phenyl)amino)pyrimidin-2-yl)amino)-3-methoxyphenyl)piperidin-4-yl)piperazin-1-yl)methyl)piperidin-1-yl)-2-(2,4-dioxotetrahydropyrimidin-1(2H)-yl)isoindoline-1,3-dione], the inhibition at 0.01 µM in test [2] (setting [6]) lay within 30 to 45%. The inhibition at 0.5 µM in test [2] (setting [7]) was 60 to 80%.

On to `COc1cc(N2CCC(N(C)CC3CCN(c4ccc5c(c4)C(=O)N(N4CCC(=O)NC4=O)C5=O)CC3)CC2)ccc1Nc1ncc(Cl)c(Nc2ccccc2P(C)(C)=O)n1` [GT-08253, 5-(4-(((1-(4-((5-chloro-4-((2-(dimethylphosphoryl)phenyl)amino)pyrimidin-2-yl)amino)-3-methoxyphenyl)piperidin-4-yl)(methyl)amino)methyl)piperidin-1-yl)-2-(2,4-dioxotetrahydropyrimidin-1(2H)-yl)isoindoline-1,3-dione], for which the inhibition at 0.01 µM in test [2] (setting [6]) was 15 to 20%. Besides, in test [2] (setting [7]), the inhibition at 0.5 µM was 45 to 55%.

Regarding `COc1cc(N2CCC(N(C)CC3CCN(c4cccc5c4C(=O)N(N4CCC(=O)NC4=O)C5=O)CC3)CC2)ccc1Nc1ncc(Cl)c(Nc2ccccc2P(C)(C)=O)n1` [GT-08254, 4-(4-(((1-(4-((5-chloro-4-((2-(dimethylphosphoryl)phenyl)amino)pyrimidin-2-yl)amino)-3-methoxyphenyl)piperidin-4-yl)(methyl)amino)methyl)piperidin-1-yl)-2-(2,4-dioxotetrahydropyrimidin-1(2H)-yl)isoindoline-1,3-dione], the inhibition at 0.01 µM in test [2] (setting [6]) was in the range of 45 to 55%. Besides, the inhibition at 0.5 µM in test [2] (setting [7]) was 60 to 80%.

For the compound `C[C@@H]1CNC(=O)c2cc3ccc(C(=O)Nc4cnn(Cc5ccc(N6CCN(CC7CCN(c8ccc9c(c8)C(=O)N(N8CCC(=O)NC8=O)C9=O)CC7)CC6)cc5)c4)nc3n21` [GT-08255, (R)—N-(1-(4-(4-((1-(2-(2,4-dioxotetrahydropyrimidin-1(2H)-yl)-1,3-dioxoisoindolin-5-yl)piperidin-4-yl)methyl)piperazin-1-yl)benzyl)-1H-pyrazol-4-yl)-9-methyl-6-oxo-6,7,8,9-tetrahydropyrido[3′,2′: 4,5]pyrrolo[1,2-a]pyrazine-2-carboxamide], the inhibition at 0.01 µM in test [2] (MV-4-11, 10 nM) was -15 to -5%. Further, the inhibition at 0.5 µM in test [2] (MV-4-11, 500 nM) fell in the range of 50 to 70%.

On to `C[C@@H]1CNC(=O)c2cc3ccc(C(=O)Nc4cnn(Cc5ccc(N6CCN(CC7CCN(c8cccc9c8C(=O)N(N8CCC(=O)NC8=O)C9=O)CC7)CC6)cc5)c4)nc3n21` [GT-08256, (R)—N-(1-(4-(4-((1-(2-(2,4-dioxotetrahydropyrimidin-1(2H)-yl)-1,3-dioxoisoindolin-4-yl)piperidin-4-yl)methyl)piperazin-1-yl)benzyl)-1H-pyrazol-4-yl)-9-methyl-6-oxo-6,7,8,9-tetrahydropyrido[3′,2′: 4,5]pyrrolo[1,2-a]pyrazine-2-carboxamide], for which the inhibition at 0.01 µM in test [2] (MV-4-11, 10 nM) fell in the range of 20 to 30%. Further, the inhibition at 0.5 µM in test [2] (MV-4-11, 500 nM) is 80 to 100%.

In the case of `Cc1ccc(C(=O)Nc2ccc(CN3CCN(CC4CCN(c5cccc6c5C(=O)N(N5CCC(=O)NC5=O)C6=O)CC4)CC3)c(C(F)(F)F)c2)cc1C#Cc1cnc2cccnn12` [GT-08353, N-(4-((4-((1-(2-(2,4-dioxotetrahydropyrimidin-1(2H)-yl)-1,3-dioxoisoindolin-4-yl)piperidin-4-yl)methyl)piperazin-1-yl)methyl)-3-(trifluoromethyl)phenyl)-3-(imidazo[1,2-b]pyridazin-3-ylethynyl)-4-methylbenzamide], the inhibition at 0.01 µM in test [2] (setting [3]) lay in the range of 50 to 60%. In addition, in test [2] (setting [4]), the inhibition at 0.5 µM was in the range of 80 to 100%.

As to `Cn1c2ccncc2c2ccc(-c3cnc(N4CCN(CC5CCN(c6cccc7c6C(=O)N(N6CCC(=O)NC6=O)C7=O)CC5)CC4)c(C(F)(F)F)c3)cc21` [GT-08561, 2-(2,4-dioxotetrahydropyrimidin-1(2H)-yl)-4-(4-((4-(5-(5-methyl-5H-pyrido[4,3-b]indol-7-yl)-3-(trifluoromethyl)pyridin-2-yl)piperazin-1-yl)methyl)piperidin-1-yl)isoindoline-1,3-dione], the inhibition at 0.01 µM in test [2] (Table IJ2, Tau inhibitor-based, MV-4-11, 10 nM, 96 hours) was in the range of 0 to 5%. The inhibition at 0.5 µM in test [2] (Table IJ2, Tau inhibitor-based, MV-4-11, 500 nM, 96 hours) lay within 50 to 60%.
